Measured values reported in US9409952B2, “Peptide-compound cyclization method” (Chugai Seiyaku Kabushiki Kaisha, priority 2011, dated 2016).
Read-outs that look alike come from different tables or passages of the source. Starred links: 1 amine or outer side, 2 acyl side, 3 side chain; linkers in the order of their positions; H or OH if unused. Positions of bridges follow the written chain, without caps; N, C: chain ends. Non-standard residues stand in square brackets, D forms with d. Residues, ends and D or L forms follow the SMILES beside them. *: point of attachment. NMeF = CN[C@@H](Cc1ccccc1)C(=O)O; NMeGABA = CN(CCCC(=O)[*:2])[*:1]; NMeβAla = CN(CCC(=O)[*:2])[*:1]; NMeL = CN[C@@H](CC(C)C)C(=O)O; NMeV = CN[C@H](C(=O)O)C(C)C; NMeA = CN[C@@H](C)C(=O)O; Piperidide = C1CCN(*)CC1; dNMeA = CN[C@H](C)C(=O)O; Sar = CNCC(=O)O; tBu = CC(C)(C)*

Columns and labels:
[1] = PAMPA (parallel artificial membrane permeability assay); type: in vitro ADME; conditions: PAMPA
Procedure, shortened: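 Artificial membrane was 10% (w/v) egg lecithin plus 0.5% (w/v) cholesterol in dodecane on a PVDF filter. A 10 mM DMSO stock was added at 0.5% (v/v) to donor buffer (50 mM MOPSO, pH 6.5, 5.0% glycocholic acid). After 18 h at 37 °C, LC/MS or LC/UV gave donor and acceptor levels for Pe.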

[2] = Metabolic stability in human hepatic microsome; type: in vitro ADME; conditions: microsomes
[3] = membrane permeation rate (Pe), 50 mM MOPSO buffer pH 6.5 with 5.0% glycocholic acid, 37° C., 18 hours, read-out: iPAMPA Pe
[4] = pH 7.4, human hepatic microsome, NADPH(+), read-out: CL NADPH(+)

Compound	Papp at 18 hours, 50 µM ([1]; pH 6.5) [×10⁻⁶ cm/s]	microsomal CLint at 1 uM ([2]; human, pH 7.4, CL NADPH(+)) [µL/min/mg]	Papp at 18 hours, 50 µM [1, 3] [×10⁻⁶ cm/s]	microsomal CLint at 1 uM [2, 4] [µL/min/mg]
CC[C@H](C)[C@@H]1NC(=O)[C@H](CC(C)C)N(C)C(=O)[C@H](C(C)C)N(C)C(=O)[C@H](C)NC(=O)[C@H](C)N(C)C(=O)[C@H](Cc2ccccc2)NC(=O)[C@H]([C@@H](C)O)NC(=O)[C@H](CC(C)C)N(C)C(=O)[C@H](CC(C)C)N(C)C(=O)[C@H](C)N(C)C(=O)C[C@@H](C(=O)N2CCCCC2)NC1=O [DP-112] ([NMeA][NMeL][NMeL]TF[NMeA]A[NMeV][NMeL]ID-Piperidide; lactam N-11)	35	49	–	–
CC[C@H](C)[C@@H]1NC(=O)[C@@H]2CCCN2C(=O)[C@H]([C@@H](C)O)NC(=O)[C@H](Cc2ccccc2)NC(=O)CNC(=O)[C@H](Cc2ccccc2)N(C)C(=O)[C@H](CC(C)C)NC(=O)[C@H](CC(C)C)N(C)C(=O)[C@H](CC(C)C)N(C)C(=O)CCCN(C)C(=O)C[C@@H](C(=O)N2CCCCC2)NC1=O [DP-113] ([NMeGABA][NMeL][NMeL]L[NMeF]GFTPID-Piperidide; lactam N-11)	28	84	–	–
CC[C@H](C)[C@@H]1NC(=O)[C@H](CC(C)C)N(C)C(=O)CCCN(C)C(=O)C[C@@H](C(=O)N2CCCCC2)NC(=O)[C@H](CC(C)C)N(C)C(=O)[C@H](C)N(C)C(=O)[C@H]([C@@H](C)O)NC(=O)[C@H](CC(C)C)N(C)C(=O)[C@H](COC(C)(C)C)NC(=O)[C@H](Cc2ccccc2)N(C)C(=O)[C@H](Cc2ccccc2)N(C)C1=O [DP-114] ([NMeGABA][NMeL]I[NMeF][NMeF]S(tBu)[NMeL]T[NMeA][NMeL]D-Piperidide; lactam N-11)	44	56	–	–
CC[C@H](C)[C@@H]1NC(=O)[C@H](Cc2ccccc2)N(C)C(=O)[C@H](CC(C)C)NC(=O)[C@H](CC(C)C)NC(=O)[C@H](Cc2ccccc2)NC(=O)[C@H](CC(C)C)NC(=O)[C@@H](C)NC(=O)C[C@@H](C(=O)N2CCCCC2)NC(=O)[C@H](Cc2ccccc2)NC(=O)[C@H]([C@@H](C)O)NC1=O [DP-115] ([dA]LFLL[NMeF]ITFD-Piperidide; lactam N-10)	–	–	0.45	28
CC(C)C[C@@H]1NC(=O)[C@H]([C@@H](C)O)NC(=O)[C@H](CC(C)C)NC(=O)[C@H](CC(C)C)N(C)C(=O)[C@H](Cc2ccccc2)NC(=O)[C@H](Cc2ccccc2)NC(=O)[C@H](C)N(C)C(=O)C[C@@H](C(=O)N2CCCCC2)NC(=O)[C@H](Cc2ccccc2)N(C)C(=O)CNC1=O [DP-116] ([NMeA]FF[NMeL]LTLG[NMeF]D-Piperidide; lactam N-10)	–	–	23	333
CC(C)C[C@@H]1NC(=O)CCN(C)C(=O)C[C@@H](C(=O)N2CCCCC2)NC(=O)[C@H](Cc2ccccc2)N(C)C(=O)CNC(=O)[C@H]([C@@H](C)O)NC(=O)[C@H](Cc2ccccc2)NC(=O)[C@H](CC(C)C)N(C)C(=O)[C@H](CC(C)C)NC(=O)[C@H](Cc2ccccc2)NC1=O [DP-117] ([NMeβAla]LFL[NMeL]FTG[NMeF]D-Piperidide; lactam N-10)	–	–	25	194
CC[C@H](C)[C@@H]1NC(=O)[C@H](CC(C)C)N(C)C(=O)CCN(C)C(=O)C[C@@H](C(=O)N2CCCCC2)NC(=O)[C@H](Cc2ccccc2)N(C)C(=O)[C@H](CC(C)C)NC(=O)CN(C)C(=O)[C@H]([C@@H](C)O)NC(=O)[C@H](C)N(C)C(=O)[C@H](C(C)C)N(C)C1=O [DP-118] ([NMeβAla][NMeL]I[NMeV][NMeA]T[Sar]L[NMeF]D-Piperidide; lactam N-10)	14	79	–	–
CC[C@H](C)[C@@H]1NC(=O)[C@H](Cc2ccccc2)NC(=O)[C@@H](C)N(C)C(=O)C[C@@H](C(=O)N2CCCCC2)NC(=O)[C@H](CC(C)C)NC(=O)[C@H](Cc2ccccc2)N(C)C(=O)[C@H](Cc2ccccc2)NC(=O)[C@H](CC(C)C)NC(=O)[C@H]([C@@H](C)O)NC(=O)[C@H](CC(C)C)NC1=O [DP-119] ([dNMeA]FILTLF[NMeF]LD-Piperidide; lactam N-10)	–	–	16	67
CC(C)C[C@@H]1NC(=O)[C@H](CC(C)C)N(C)C(=O)[C@H](Cc2ccccc2)N(C)C(=O)CNC(=O)[C@H]([C@@H](C)O)NC(=O)[C@H](CC(C)C)N(C)C(=O)[C@H](Cc2ccccc2)NC(=O)[C@@H](C)N(C)C(=O)C[C@@H](C(=O)N2CCCCC2)NC(=O)[C@H](COC(C)(C)C)NC1=O [DP-120] ([dNMeA]F[NMeL]TG[NMeF][NMeL]LS(tBu)D-Piperidide; lactam N-10)	–	–	50	84
